Legend:
Assay type in all cases: in vivo
Amaranthus retroflexus = experiment: Test Example 4: herbicidal effect by soil treatment (symbol N)
Procedure, shortened: (§1)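 Seeds were sown in sterilized diluvial soil, covered with about 1.5 cm of soil, and the soil surface was sprayed with a water-diluted emulsion of the compound at a predetermined rate. Plants grew in a greenhouse at 25° C. to 30° C.; effects were scored visually 3 weeks after application.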

rapeseed = experiment: Test Example 4: effect on crop by soil treatment (symbol g); settings: for g (rapeseed) effect on crop grade / g: rapeseed, effect on crop grade: application herbicide amount 320 g/ha
Procedure, shortened: (§2)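 Seeds were sown in spots on sterilized diluvial soil in a plastic box and covered with about 1.5 cm of soil. Plants were then grown in a greenhouse at 25° C. to 30° C.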

Alopecurus myosuroides = experiment: Test Example 4: herbicidal effect by soil treatment (symbol J)
Procedure, shortened: as §1

beet = experiment: Test Example 4: effect on crop by soil treatment (symbol f); settings: for f (beet) effect on crop grade / f: beet, effect on crop grade: application herbicide amount 320 g/ha
Procedure, shortened: as §2

[1] = test system: directly sowed rice plant; experiment: Test Example 3: effect on crop by foliage application, Wagner pot (symbol b); settings: application herbicide amount 320 g/ha
Procedure, shortened: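 Steps: fill a 1/10000-are Wagner pot with alluvial soil; add water and mix to submerge at 0.1–0.5 cm depth; sow rice plus Echinochloa crus-galli var. crus-galli, Leptochloa chinensis and Cyperus difformis; grow in a 25–30 °C greenhouse.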

Avena fatua = experiment: Test Example 4: herbicidal effect by soil treatment (symbol I)
Procedure, shortened: as §1

Monochoria vaginalis = experiment: Test Example 2: herbicidal activity, application during weed generation in submerged conditions (symbol C); settings: Table 23; application herbicide amount 320 g/ha; grade 0-5 by criteria of Test Example 1
Procedure, shortened: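 Flooded-soil post-emergence test: emulsion of compound, water-diluted to target rate, applied to paddy water surface at 1–2 leaf stage of mixed-sown weeds (alluvial soil, 4 cm water, 25–30° C. greenhouse); visual rating 3 weeks after application.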

Scirpus juncoides = experiment: Test Example 1: herbicidal activity, application before weed generation in submerged conditions (symbol B); settings: application herbicide amount 320 g/ha
Procedure, shortened: (§3)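 Paddy pre-emergence test. Formulated emulsion, water-diluted to a predetermined rate, is applied to floodwater on sowing day; rice transplanted at 2.5 leaves. Effect read at 3 weeks on a 0–5 herbicidal-ratio scale.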

Digitaria ciliaris = experiment: Test Example 5: herbicidal effect by foliage application, plastic box (symbol F); settings: 320 g/ha, 3 weeks after application
Procedure, shortened: (§4)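 Sowing in sterilized diluvial soil, 14 days' greenhouse growth at 25° C. to 30° C., then uniform small-sprayer foliar application of aqueous emulsion dilution; plants scored three weeks afterwards.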

transplanted rice plant = experiment: Test Example 1: effect on crop, application before weed generation in submerged conditions (symbol a); settings: application herbicide amount 320 g/ha
Procedure, shortened: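 Alluvial soil pots flooded to 4 cm water, sown with Echinochloa oryzacola, Scirpus juncoides and Monochoria vaginalis, then transplanted with 2.5 leaf stage rice seedlings; pre-emergence application. Greenhouse 25° C. to 30° C.; scored 0–5 by herbicidal ratio 3 weeks after application.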

[2] = test system: Echinochloa crus-galli var. crus-galli; experiment: Test Example 5: herbicidal effect by foliage application, plastic box (symbol H); settings: 320 g/ha, 3 weeks after application
Procedure, shortened: as §4

[3] = test system: Echinochloa oryzacola Vasing.; experiment: Test Example 1: herbicidal activity, application before weed generation in submerged conditions (symbol A); settings: application herbicide amount 320 g/ha
Procedure, shortened: as §3

Abutilon theophrasti = experiment: Test Example 4: herbicidal effect by soil treatment (symbol M)
Procedure, shortened: as §1

soybean = experiment: Test Example 4: effect on crop by soil treatment (symbol d); settings: for d (soybean) effect on crop grade / d: soybean, effect on crop grade: application herbicide amount 320 g/ha
Procedure, shortened: as §2

[4] = application herbicide amount 320 g/ha

SMILES: CON=C(C)CC1CC(OCC#N)=C(c2c(C)cc(C)cc2C)C1=O (stereo not shown) [1-013]
- N (Amaranthus retroflexus) herbicidal effect grade (Amaranthus retroflexus; [4]): 0 (Herbicidal ratio of 5% or lower (almost no effect))
- g (rapeseed) effect on crop grade (rapeseed): 0 (Herbicidal ratio of 5% or lower (almost no effect))
- J (Alopecurus myosuroides) herbicidal effect grade (Alopecurus myosuroides; [4]): 0 (Herbicidal ratio of 5% or lower (almost no effect))
- f (beet) effect on crop grade (beet): 0 (Herbicidal ratio of 5% or lower (almost no effect))
- effect on crop b (directly sowed rice plant), grade 0-5 [1]: 0 (Herbicidal ratio of 5% or lower (almost no effect))
- I (Avena fatua) herbicidal effect grade (Avena fatua; [4]): 0 (Herbicidal ratio of 5% or lower (almost no effect))
- Herbicidal effect grade, C: Monochoria vaginalis (Monochoria vaginalis): 0 (Herbicidal ratio of 5% or lower (almost no effect))
- Herbicidal effect grade, B: Scirpus juncoides (Scirpus juncoides): 0 (Herbicidal ratio of 5% or lower (almost no effect))
- F: Digitaria ciliaris, herbicidal effect grade (Digitaria ciliaris): 0 (Herbicidal ratio of 5% or lower (almost no effect))
- Effect grade on crop, a: transplanted rice plant (transplanted rice plant): 0 (Herbicidal ratio of 5% or lower (almost no effect))
- H: Echinochloa crus-galli var. crus-galli, herbicidal effect grade [2]: 0 (Herbicidal ratio of 5% or lower (almost no effect))
- Herbicidal effect grade, A: Echinochloa oryzacola Vasing. [3]: 0 (Herbicidal ratio of 5% or lower (almost no effect))
- M (Abutilon theophrasti) herbicidal effect grade (Abutilon theophrasti; [4]): 0 (Herbicidal ratio of 5% or lower (almost no effect))
- d (soybean) effect on crop grade (soybean): 0 (Herbicidal ratio of 5% or lower (almost no effect))

SMILES: CCOC(=O)C(C(=O)C(C)C)C1CC(O)=C(c2c(C)cc(C)cc2C)C1=O (stereo not shown) [2-009]
- N: Amaranthus retroflexus, herbicidal effect grade (Amaranthus retroflexus; [4]): 0 (Herbicidal ratio of 5% or lower (almost no effect))
- g: rapeseed, effect on crop grade (rapeseed): 0 (Herbicidal ratio of 5% or lower (almost no effect))
- J: Alopecurus myosuroides, herbicidal effect grade (Alopecurus myosuroides; [4]): 0 (Herbicidal ratio of 5% or lower (almost no effect))
- f: beet, effect on crop grade (beet): 0 (Herbicidal ratio of 5% or lower (almost no effect))
- effect on crop b (directly sowed rice plant), grade 0-5 [1]: 1 (Herbicidal ratio of 5% or higher and lower than 20%)
- I: Avena fatua, herbicidal effect grade (Avena fatua; [4]): 0 (Herbicidal ratio of 5% or lower (almost no effect))
- Herbicidal effect grade, C: Monochoria vaginalis (Monochoria vaginalis): 0 (Herbicidal ratio of 5% or lower (almost no effect))
- Herbicidal effect grade, B: Scirpus juncoides (Scirpus juncoides): 0 (Herbicidal ratio of 5% or lower (almost no effect))
- F: Digitaria ciliaris, herbicidal effect grade (Digitaria ciliaris): 0 (Herbicidal ratio of 5% or lower (almost no effect))
- Effect grade on crop, a: transplanted rice plant (transplanted rice plant): 0 (Herbicidal ratio of 5% or lower (almost no effect))
- H: Echinochloa crus-galli var. crus-galli, herbicidal effect grade [2]: 3 (Herbicidal ratio of 40% or higher and lower than 70%)
- Herbicidal effect grade, A: Echinochloa oryzacola Vasing. [3]: 0 (Herbicidal ratio of 5% or lower (almost no effect))
- M: Abutilon theophrasti, herbicidal effect grade (Abutilon theophrasti; [4]): 0 (Herbicidal ratio of 5% or lower (almost no effect))
- d: soybean, effect on crop grade (soybean): 0 (Herbicidal ratio of 5% or lower (almost no effect))

SMILES: Cc1cc(C)c(C2=C(O)CC(CC(=O)Cc3ccccc3)C2=O)c(C)c1 (stereo not shown) [2-015]
- N: Amaranthus retroflexus, herbicidal effect grade (Amaranthus retroflexus; [4]): 0 (Herbicidal ratio of 5% or lower (almost no effect))
- g: rapeseed, effect on crop grade (rapeseed): 0 (Herbicidal ratio of 5% or lower (almost no effect))
- J: Alopecurus myosuroides, herbicidal effect grade (Alopecurus myosuroides; [4]): 2 (Herbicidal ratio of 20% or higher and lower than 40%)
- f: beet, effect on crop grade (beet): 0 (Herbicidal ratio of 5% or lower (almost no effect))
- effect on crop b (directly sowed rice plant), grade 0-5 [1]: 4 (Herbicidal ratio of 70% or higher and lower than 90%)
- I: Avena fatua, herbicidal effect grade (Avena fatua; [4]): 0 (Herbicidal ratio of 5% or lower (almost no effect))
- Herbicidal effect grade, C: Monochoria vaginalis (Monochoria vaginalis): 0 (Herbicidal ratio of 5% or lower (almost no effect))
- Herbicidal effect grade, B: Scirpus juncoides (Scirpus juncoides): 4 (Herbicidal ratio of 70% or higher and lower than 90%)
- F: Digitaria ciliaris, herbicidal effect grade (Digitaria ciliaris): 5 (Herbicidal ratio of 90% or more (almost completely withered))
- Effect grade on crop, a: transplanted rice plant (transplanted rice plant): 0 (Herbicidal ratio of 5% or lower (almost no effect))
- H: Echinochloa crus-galli var. crus-galli, herbicidal effect grade [2]: 5 (Herbicidal ratio of 90% or more (almost completely withered))
- Herbicidal effect grade, A: Echinochloa oryzacola Vasing. [3]: 0 (Herbicidal ratio of 5% or lower (almost no effect))
- M: Abutilon theophrasti, herbicidal effect grade (Abutilon theophrasti; [4]): 0 (Herbicidal ratio of 5% or lower (almost no effect))
- d: soybean, effect on crop grade (soybean): 0 (Herbicidal ratio of 5% or lower (almost no effect))

SMILES: CON=C(C)CC1CC(OC(=O)c2ccccc2OC(F)(F)F)=C(c2c(C)cc(C)cc2C)C1=O (stereo not shown) [1-155]
- N: Amaranthus retroflexus, herbicidal effect grade (Amaranthus retroflexus; 320 g/ha): 5 (Herbicidal ratio of 90% or more (almost completely withered))
- g: rapeseed, effect grade on crop (rapeseed; 320 g/ha): 4 (Herbicidal ratio of 70% or higher and lower than 90%)
- J: Alopecurus myosuroides, herbicidal effect grade (Alopecurus myosuroides; 320 g/ha): 5 (Herbicidal ratio of 90% or more (almost completely withered))
- f: beet, effect grade on crop (beet; 320 g/ha): 0 (Herbicidal ratio of 5% or lower (almost no effect))
- effect on crop b (directly sowed rice plant), grade 0-5 [1]: 5 (Herbicidal ratio of 90% or more (almost completely withered))
- I: Avena fatua, herbicidal effect grade (Avena fatua; 320 g/ha): 4 (Herbicidal ratio of 70% or higher and lower than 90%)
- Herbicidal effect grade, C: Monochoria vaginalis (Monochoria vaginalis): 3 (Herbicidal ratio of 40% or higher and lower than 70%)
- Herbicidal effect grade, B: Scirpus juncoides (Scirpus juncoides): 5 (Herbicidal ratio of 90% or more (almost completely withered))
- F: Digitaria ciliaris, herbicidal effect (criteria 0-5) (Digitaria ciliaris): 5 (Herbicidal ratio of 90% or more (almost completely withered))
- Effect grade on crop, a: transplanted rice plant (transplanted rice plant): 5 (Herbicidal ratio of 90% or more (almost completely withered))
- H: Echinochloa crus-galli var. crus-galli, herbicidal effect (criteria 0-5) [2]: 5 (Herbicidal ratio of 90% or more (almost completely withered))
- Herbicidal effect grade, A: Echinochloa oryzacola Vasing. [3]: 5 (Herbicidal ratio of 90% or more (almost completely withered))
- M: Abutilon theophrasti, herbicidal effect grade (Abutilon theophrasti; 320 g/ha): 5 (Herbicidal ratio of 90% or more (almost completely withered))
- d: soybean, effect grade on crop (soybean; 320 g/ha): 0 (Herbicidal ratio of 5% or lower (almost no effect))

SMILES: CON=C(C)CC1CC(OCC(=O)OC)=C(c2c(C)cc(C)cc2C)C1=O (stereo not shown) [1-012]
- N (Amaranthus retroflexus) herbicidal effect grade (Amaranthus retroflexus; [4]): 0 (Herbicidal ratio of 5% or lower (almost no effect))
- g (rapeseed) effect on crop grade (rapeseed): 0 (Herbicidal ratio of 5% or lower (almost no effect))
- J (Alopecurus myosuroides) herbicidal effect grade (Alopecurus myosuroides; [4]): 0 (Herbicidal ratio of 5% or lower (almost no effect))
- f (beet) effect on crop grade (beet): 0 (Herbicidal ratio of 5% or lower (almost no effect))
- effect on crop b (directly sowed rice plant), grade 0-5 [1]: 0 (Herbicidal ratio of 5% or lower (almost no effect))
- I (Avena fatua) herbicidal effect grade (Avena fatua; [4]): 0 (Herbicidal ratio of 5% or lower (almost no effect))
- Herbicidal effect grade, C: Monochoria vaginalis (Monochoria vaginalis): 0 (Herbicidal ratio of 5% or lower (almost no effect))
- Herbicidal effect grade, B: Scirpus juncoides (Scirpus juncoides): 0 (Herbicidal ratio of 5% or lower (almost no effect))
- F: Digitaria ciliaris, herbicidal effect grade (Digitaria ciliaris): 0 (Herbicidal ratio of 5% or lower (almost no effect))
- Effect grade on crop, a: transplanted rice plant (transplanted rice plant): 0 (Herbicidal ratio of 5% or lower (almost no effect))
- H: Echinochloa crus-galli var. crus-galli, herbicidal effect grade [2]: 0 (Herbicidal ratio of 5% or lower (almost no effect))
- Herbicidal effect grade, A: Echinochloa oryzacola Vasing. [3]: 0 (Herbicidal ratio of 5% or lower (almost no effect))
- M (Abutilon theophrasti) herbicidal effect grade (Abutilon theophrasti; [4]): 0 (Herbicidal ratio of 5% or lower (almost no effect))
- d (soybean) effect on crop grade (soybean): 0 (Herbicidal ratio of 5% or lower (almost no effect))
